Among the data in patent US8299070B2, “Indole compounds and pharmaceutical use thereof” (Japan Tobacco Inc., priority 2009, dated 2012) are IC50 values, retold here.

Counter-ions that a name gives are not always drawn. Where only a bound is given, the exact number is not on record here.

The experiment addresses T1, hITK enzyme (FLAG-tagged full-length hITK) (Homo sapiens, UniProt Q08881).
T1 construct: strongly expressing FLAG-tagged full-length hITK in Sf9 cells; FLAG; made in house; host or cells: Sf9 insect cells (ITK); Escherichia coli (GST-SLP76 substrate)
T1 sequence (Q08881 1-620): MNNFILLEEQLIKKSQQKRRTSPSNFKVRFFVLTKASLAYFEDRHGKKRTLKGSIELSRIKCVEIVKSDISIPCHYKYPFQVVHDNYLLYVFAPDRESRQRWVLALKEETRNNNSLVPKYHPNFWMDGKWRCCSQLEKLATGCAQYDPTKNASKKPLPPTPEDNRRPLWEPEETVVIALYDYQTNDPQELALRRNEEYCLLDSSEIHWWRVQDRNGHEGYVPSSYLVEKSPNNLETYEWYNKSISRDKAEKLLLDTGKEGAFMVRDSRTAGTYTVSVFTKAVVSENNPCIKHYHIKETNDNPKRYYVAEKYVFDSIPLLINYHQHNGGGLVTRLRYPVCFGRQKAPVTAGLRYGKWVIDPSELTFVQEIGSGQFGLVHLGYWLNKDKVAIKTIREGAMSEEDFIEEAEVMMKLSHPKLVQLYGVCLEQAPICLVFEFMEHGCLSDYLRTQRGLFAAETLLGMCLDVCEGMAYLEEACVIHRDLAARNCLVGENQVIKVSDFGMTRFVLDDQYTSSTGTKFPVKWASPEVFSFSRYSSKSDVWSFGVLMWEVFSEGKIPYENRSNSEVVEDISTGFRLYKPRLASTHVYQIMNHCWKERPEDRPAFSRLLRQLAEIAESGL
In words: ITK inhibitory activity (HTRF kinase assay, biotinylated GST-SLP76 substrate). Particulars: IC50 calculated from the 2 test compound concentrations sandwiching 50% ITK inhibitory rate. It counts as biochemical. As to the method:
(1) Preparation of hITK Enzyme
hITK enzyme was prepared by strongly expressing FLAG-tagged full-length hITK in Sf9 cells, and purifying same by anti-FLAG antibody column.
(2) Preparation of biotinylated GST-SLP76
Biotinylated GST-SLP76 was prepared by strongly expressing GST-tagged SLP76 (aa95-175) in Escherichia coli, purifying same by glutathion sepharose column and biotinylating same.
(3) Preparation of Solution
(i) buffer for dilution: 20 mmol/L 3-(N-morpholino)propanesulfonic acid (pH 7.0) (DOJINDO LABORATORIES), 10 mmol/L magnesium chloride (Sigma-Aldrich Corporation), 1 mmol/L dithiothreitol (Nacalai Tesque, Inc.), 0.1% gelatin (Sigma-Aldrich Corporation)
(ii) substrate solution: 0.2 μg/mL biotinylated GST-SLP76, 100 μmol/L ATP (Sigma-Aldrich Corporation), prepared with buffer for dilution
(iii) test compound solution: test compound, 50% dimethyl sulfoxide (DMSO), prepared with buffer for dilution
(iv) enzyme solution: 50 ng/mL hITK enzyme, prepared with buffer for dilution
(v) control solution: solution after removal of test compound from the mixture of the above-mentioned (i), (ii) and (iii)
(vi) blank solution: solution after removal of ATP from the mixture of the above-mentioned (i), (ii) and (iii)
(vii) detection buffer: 0.1 μg/mL Anti-Phosphotyrosine (PT66)-Cryptate (Cisbio), 2.5 μg/mL streptavidin-binding XL665 (Cisbio), 50 mmol/L 4-(2-hydroxyethyl)-1-piperazineethanesulfonic acid (pH 7.4) (Nacalai Tesque, Inc.), 30 mmol/L EDTA (NipponGene), 0.1% TritonX (Sigma-Aldrich Corporation), 200 mmol/L potassium fluoride (Wako Pure Chemical Industries, Ltd.), 0.05% bovine serum albumin (Sigma-Aldrich Corporation) (4) Measurement of ITK Inhibitory Activity
A substrate solution (25 μL/well), a test compound solution (5 μL/well) and an enzyme solution (20 μL/well) were added into 96 well half-area white plate (plate, Corning Incorporated 3642) to start a kinase reaction. The plate was stood still at room temperature for 10 min. Then, a detection buffer (50 μL/well) was added to the plate. After 2 hr from the addition of the detection buffer, fluorescence intensity at 620 nm (excited at 337 nm), and fluorescence intensity at 665 nm ([…]) were measured by a fluorescence microplate reader.
The Ratio (fluorescence intensity at 665 nm/fluorescence intensity at 620 nm×10000) of each test compound was calculated from the measured fluorescence intensity. Simultaneously, the measurement was performed using a blank solution and a control solution, and % of control value of each test compound was calculated from the following formula. % of control=(Ratio of test compound−Ratio of blank)/(Ratio of control−Ratio of blank)×100 ITK inhibitory rate (%)=100−(% of control)
The IC50 value was calculated from the test compound concentrations at 2 points sandwiching 50% ITK inhibitory rate.
In the test for the compounds of Examples 380 and 381, the ATP concentration of the substrate solutions was 6 μmol/L.
Broadly, the IC50 is the concentration at which inhibition is half-maximal. Take `CC(=O)N(C)c1ccc2cc(-c3n[nH]c4c3CCC(C)(C)C4)[nH]c2c1` [Example 1, N-[2-(6,6-dimethyl-4,5,6,7-tetrahydro-1H-indazol-3-yl)-1H-indol-6-yl]-N-methylacetamide]: the IC50 was 7 nM. Under `CCN(C(C)=O)c1ccc2cc(-c3n[nH]c4c3CCC(C)(C)C4)[nH]c2c1` [Example 2, N-[2-(6,6-dimethyl-4,5,6,7-tetrahydro-1H-indazol-3-yl)-1H-indol-6-yl]-N-ethylacetamide] stands 5 nM; under `CN(C(=O)OCc1ccccc1)c1ccc2cc(-c3n[nH]c4c3CCC(C)(C)C4)[nH]c2c1` [Example 3, benzyl N-{2-(6,6-dimethyl-4,5,6,7-tetrahydro-1H-indazol-3-yl)-1H-indol-6-yl}-N-methylcarbamate], 39 nM; under `C[C@@H](C(=O)N(C)c1ccc2cc(-c3n[nH]c4c3CCC(C)(C)C4)[nH]c2c1)N1CCOCC1` [Example 4, (S)—N-[2-(6,6-dimethyl-4,5,6,7-tetrahydro-1H-indazol-3-yl)-1H-indol-6-yl]-N-methyl-2-(morpholin-4-yl)propionamide], 2 nM.

Consider `C[C@@H](C(=O)N(C)c1ccc2cc(-c3n[nH]c4c3CCC(C)(C)C4)[nH]c2c1)N1CCOCC1` [Example 5, (S)—N-[2-(6,6-dimethyl-4,5,6,7-tetrahydro-1H-indazol-3-yl)-1H-indol-6-yl]-N-methyl-2-(morpholin-4-yl)propionamide hydrochloride], for which the IC50 was 3 nM. Next, `CN(C(=O)CN1CCOCC1=O)c1ccc2cc(-c3n[nH]c4c3CCC(C)(C)C4)[nH]c2c1` [Example 6, N-[2-(6,6-dimethyl-4,5,6,7-tetrahydro-1H-indazol-3-yl)-1H-indol-6-yl]-N-methyl-2-(3-oxomorpholin-4-yl)acetamide]: 2 nM; `CC(CO)N(C)C(=O)c1ccc2cc(-c3n[nH]c4c3CCC(C)(C)C4)[nH]c2c1` (centres unmarked) [Example 7, 2-(6,6-dimethyl-4,5,6,7-tetrahydro-1H-indazol-3-yl)-1H-indole-6-carboxylic acid (2-hydroxy-1-methylethyl)methylamide]: 39 nM. Next, `CN(C(=O)CN1CCCCC1=O)c1ccc2cc(-c3n[nH]c4c3CCC(C)(CO)C4)[nH]c2c1` (centres unmarked) [Example 8, N-[2-(6-hydroxymethyl-6-methyl-4,5,6,7-tetrahydro-1H-indazol-3-yl)-1H-indol-6-yl]-N-methyl-2-(2-oxopiperidin-1-yl)acetamide]: 3 nM; `CC1(C)CCc2c(-c3cc4ccc(C(=O)Nc5ccccc5)cc4[nH]3)n[nH]c2C1` [Example 9]: 334 nM; `CN(C(=O)c1ccc2cc(-c3n[nH]c4c3CCC(C)(C)C4)[nH]c2c1)c1ccccc1` [Example 10]: 45 nM. Under `CC(C)(C)CNC(=O)c1ccc2cc(-c3n[nH]c4c3CCC(C)(C)C4)[nH]c2c1` [Example 11] stands 36 nM.

As for `CC(C)CNC(=O)c1ccc2cc(-c3n[nH]c4c3CCC(C)(C)C4)[nH]c2c1` [Example 12], the IC50 is 33 nM.

Take `CC(NC(=O)c1ccc2cc(-c3n[nH]c4c3CCC(C)(C)C4)[nH]c2c1)C(C)(C)C` (centres unmarked) [Example 13]: the IC50 was 99 nM. Next, `CN1CCN(C(=O)c2ccc3cc(-c4n[nH]c5c4CCC(C)(C)C5)[nH]c3c2)CC1` [Example 14]: 40 nM; `CN(CC(C)(C)C)C(=O)c1ccc2cc(-c3n[nH]c4c3CCC(C)(C)C4)[nH]c2c1` [Example 15]: 9 nM. In the case of `CC1(C)CCc2c(-c3cc4ccc(C(=O)N5CCC(O)CC5)cc4[nH]3)n[nH]c2C1` [Example 16], the IC50 is 25 nM.

`CC(C)CN(C)C(=O)c1ccc2cc(-c3n[nH]c4c3CCC(C)(C)C4)[nH]c2c1` [Example 17]: the IC50 was 5 nM. Under `CC(N(C)C(=O)c1ccc2cc(-c3n[nH]c4c3CCC(C)(C)C4)[nH]c2c1)C(C)(C)C` (centres unmarked) [Example 18] stands 45 nM; under `CC1(C)CCc2c(-c3cc4ccc(C(=O)N5CCOCC5)cc4[nH]3)n[nH]c2C1` [Example 19], 23 nM. Next, `CC(CO)NC(=O)c1ccc2cc(-c3n[nH]c4c3CCC(C)(C)C4)[nH]c2c1` (centres unmarked) [Example 20]: 47 nM; `COCC(C)NC(=O)c1ccc2cc(-c3n[nH]c4c3CCC(C)(C)C4)[nH]c2c1` (centres unmarked) [Example 21]: 30 nM; `COCC(C)N(C)C(=O)c1ccc2cc(-c3n[nH]c4c3CCC(C)(C)C4)[nH]c2c1` (centres unmarked) [Example 22]: 40 nM. Under `CC(C)C(CO)NC(=O)c1ccc2cc(-c3n[nH]c4c3CCC(C)(C)C4)[nH]c2c1` (centres unmarked) [Example 23] stands 18 nM; under `COCC(NC(=O)c1ccc2cc(-c3n[nH]c4c3CCC(C)(C)C4)[nH]c2c1)C(C)C` (centres unmarked) [Example 24], 25 nM. Consider `CC(C)C(CO)N(C)C(=O)c1ccc2cc(-c3n[nH]c4c3CCC(C)(C)C4)[nH]c2c1` (centres unmarked) [Example 25], for which the IC50 was 26 nM.

In the case of `COCC(C(C)C)N(C)C(=O)c1ccc2cc(-c3n[nH]c4c3CCC(C)(C)C4)[nH]c2c1` (centres unmarked) [Example 26], the IC50 was 85 nM. For the compound `CC1(C)CCc2c(-c3cc4ccc(NC(=O)c5ccccc5)cc4[nH]3)n[nH]c2C1` [Example 27], the IC50 is 327 nM. Next, `CCC(=O)Nc1ccc2cc(-c3n[nH]c4c3CCC(C)(C)C4)[nH]c2c1` [Example 28]: 201 nM; `CC1(C)CCc2c(-c3cc4ccc(NC(N)=O)cc4[nH]3)n[nH]c2C1` [Example 29]: 85 nM. For the compound `CN(C(=O)c1ccccc1)c1ccc2cc(-c3n[nH]c4c3CCC(C)(C)C4)[nH]c2c1` [Example 30], the IC50 was 10 nM. Under `CN(C(=O)c1cccc(C(F)(F)F)c1)c1ccc2cc(-c3n[nH]c4c3CCC(C)(C)C4)[nH]c2c1` [Example 31] stands 34 nM; under `CCC(=O)N(C)c1ccc2cc(-c3n[nH]c4c3CCC(C)(C)C4)[nH]c2c1` [Example 32], 4 nM; under `CN(C(=O)C1CCCC1)c1ccc2cc(-c3n[nH]c4c3CCC(C)(C)C4)[nH]c2c1` [Example 33], 11 nM. Under `CC(O)C(=O)N(C)c1ccc2cc(-c3n[nH]c4c3CCC(C)(C)C4)[nH]c2c1` (centres unmarked) [Example 34] stands 5 nM.

For the compound `CN(C(=O)CO)c1ccc2cc(-c3n[nH]c4c3CCC(C)(C)C4)[nH]c2c1` [Example 35], the IC50 is 5 nM. Next, `COCC(=O)N(C)c1ccc2cc(-c3n[nH]c4c3CCC(C)(C)C4)[nH]c2c1` [Example 36]: less than 3 nM; `CN(C(=O)C(C)(C)O)c1ccc2cc(-c3n[nH]c4c3CCC(C)(C)C4)[nH]c2c1` [Example 37]: 8 nM. Next, `CCCC(=O)N(C)c1ccc2cc(-c3n[nH]c4c3CCC(C)(C)C4)[nH]c2c1` [Example 38]: 5 nM; `CC(C)C(=O)N(C)c1ccc2cc(-c3n[nH]c4c3CCC(C)(C)C4)[nH]c2c1` [Example 39]: 4 nM.

`CC(C)CC(=O)N(C)c1ccc2cc(-c3n[nH]c4c3CCC(C)(C)C4)[nH]c2c1` [Example 40]: the IC50 was 6 nM.

On to `COC(C)C(=O)N(C)c1ccc2cc(-c3n[nH]c4c3CCC(C)(C)C4)[nH]c2c1` (centres unmarked) [Example 41], for which the IC50 is 4 nM.
